Reference: patent US12698467B2, “Tissue engineered scaffolds, instrumented bioreactors and methods of use thereof” (President and Fellows of Harvard College, priority 2018, dated 2026)
Entries after “also recorded” stand apart in the source; their conditions may differ.

Tests used:
[1] = test system: neonatal rat ventricular myocyte (NRVM) tissue-engineered ventricles; experiment: β-adrenergic response of tissue-engineered NRVM ventricles by pressure-volume catheterization; type: cell-based
Description: (§1) Intra-ventricular pressure and volume were measured simultaneously using a Millar MPVS-Ultra single segment foundation system for rats with SPR-869NR rat pressure-volume (PV) catheters (ADInstruments, Colorado Springs, CO). Catheter calibration and PV experiments were performed in freshly prepared Tyrode's solution. First, tissue-engineered ventricles were transferred to a 3.5 cm petri dish mounted on a temperature-controlled stage (Warner Instruments, Hamden Conn.) to maintain 35° C. working temperature. Ventricles were sutured to silicone tubing through which catheters were inserted (FIG. 12A). Data acquired at a sampling rate of 2,000 samples per second using manufacturer-supplied acquisition systems (Millar MPVS ultra, ADInstruments LabChart) and was exported for post-processing with custom Matlab scripts (MathWorks, Natick MA).
(§2) Catheter calibration. Catheters were equilibrated at 35° C. prior to use and calibrated for pressure using a manometer (Meriam M2; Meriam Process Technologies, Cleveland, OH) and volume using manufacturer-supplied cuvettes (Millar P/N 910-1048). […] Separate scaffold-specific calibrations were performed, where cell-free scaffolds were inflated and deflated by manual application of pressure through a solution-filled syringe connected to the ventricle through a junction port. […] In some cases, pressure or volume signal noise and drift were reduced by post-processing using Matlab's smooth and polyfit functions (FIG. 12C). Pressure and volume signals were normalized by polynomial background subtraction to reduce unwanted signal drift from large data sets, clarifying frequency-domain analysis of ventricle beat rates over these time periods (FIGS. 13A-13D).
(§3) β-adrenergic response of tissue-engineered ventricles. The contractile response of tissue-engineered ventricles to increasing concentrations of the β-adrenergic agonist isoproterenol was measured as follows. A 100 mM stock solution of isoproterenol (Sigma-Aldrich) containing 110 μM ascorbic acid (Sigma-Aldrich) and 45 μM EDTA (Sigma-Aldrich) was prepared in Tyrode's solution and stored at −20° C. […]

[2] = test system: human induced pluripotent stem cell-derived cardiomyocyte (hiPSC-CM) tissue-engineered ventricles; experiment: β-adrenergic response of tissue-engineered hiPSC-CM ventricles by pressure-volume catheterization; type: cell-based
Description: as §1, §2, §3

CC(C)NCC(O)c1ccc(O)c(O)c1 (stereo not drawn) [isoproterenol]
chronotropic response of ventricle beat rate ([1]; NRVM ventricles, 1 e^−10 M to 1 e^−4 M, cumulative doses): positive chronotropic response
increase of ventricle beat rate ([1]; NRVM ventricles, 10^−4 M isoproterenol, compared to spontaneous baseline (no Iso)): ~ 40%
effect on stroke work (pressure/volume loops) ([1]; rat (NRVM) ventricles, before vs after isoproterenol exposure): reduction in stroke work; also recorded: reduced stroke work
chronotropic response of ventricle beat rate ([2]; hiPSC-CM ventricles, 1 e^−10 M to 1 e^−4 M, cumulative doses): positive chronotropic response
increase of ventricle beat rate ([2]; hiPSC-CM ventricles, 10^−4 M isoproterenol, compared to spontaneous baseline (no Iso)): ~ 40%
effect on stroke work (pressure/volume loops) ([2]; human (hiPSC-CM) ventricles, before vs after isoproterenol exposure): reduction in stroke work; also recorded: reduced stroke work
